Data reported in patent US20130045890A1, “TEST FOR MALE FERTILITY” (Rigshospitalet Copenhagen University Hospital, priority 2010, published 2013).
Several values for one entry are separate records, joined by “and”; a condition that tells them apart may be missing. Equal values may be shown once. Entries after “also recorded” stand apart in the source; their conditions may differ.

Tests used:
[1] = test system: human spermatozoa; assay: Intracellular free calcium ([Ca2+]i) by single cell fura-2 imaging in human spermatozoa; format: cell-based; conditions: for effect of non-genomic VDR antagonist pretreatment on the calcium response to 1,25(OH)2D3: pretreatment 1-40 μM
Protocol: The intracellular free calcium concentration ([Ca2+]i) was measured in human spermatozoa from 12 normal men. Freshly delivered semen samples went through percoll density gradient centrifugation to optimize the number of spermatozoa expressing VDR and the metabolising enzymes. […] Subsequently 80 μl sperm content were diluted in 920 μl Krebs-Ringer buffer and were loaded on polynysine-coated chambers to minimize movement of the vital spermatozoa (Lab-Tek; Nalge Nunc International, USA).
Excitation was obtained by a Polychrome V illuminator from Till Photonics (Germany) and images were acquired using a Cool Snap CCD camera (Photometrics, USA) from Robert Scientific (Malaysia).
After background subtraction, ratio images were formed using MetaFluor software.
Semen samples were separated by percoll density gradient centrifugation to ensure viable and motile spermatozoa and resuspended in capacitating media for 1.5 hours. Afterwards, loaded with 3 μM of the fluorescent probe (intracellular calcium binding) fura-2/AM (Invitrogen, USA) for 30 min, centrifuged (10 min at 300 g) and washed with Krebs-Ringer buffer (120 mM NaCl, 15 mM NaHCO3, 5 mM KCl, 1 mM CaCl2, 5 mM Na2HPO4, 1 mM MgCl2 pH 7.3). […] Subsequently, 80 μl of the sperm sample was diluted in 920 μl Krebs-Ringer buffer and loaded on polylysine-coated chambers to minimize movement of the spermatozoa (Lab-Tek; Nalge Nunc International, USA). […] Excitation was obtained by a Polychrome Villuminator from Till Photonics (Germany) and images were acquired using a Cool Snap CCD camera (Photometrics, USA) from Robert Scientific (Malaysia). […] After background subtraction, ratio images were formed using MetaFluor software.
All experiments started by using low magnification to ensure visibility of several spermatozoa simultaneously. […] All measurements of [Ca2+]i were based upon evaluation of at least three spermatozoa simultaneously (see exact number in figure legends), and were repeated in at least three separate experiments. We used 10 different semen donors to ensure that all experiments were reproduced on semen samples from at least two different men.

[2] = test system: human spermatozoa; assay: Acrosome reaction of motile spermatozoa (Pisum sativum agglutinin-FITC staining); format: cell-based
Protocol: Acrosome status was assessed according to a modified version of the method described by Cross et al. 1986. […] . When more than half the head of a spermatozoon was brightly and uniformly fluorescent, the acrosome was considered to be intact. Spermatozoa without fluorescence or with a fluorescing band limited to the equatorial segment were considered to be acrosome-reacted. Spermatozoa with a fluorescing band limited to the equatorial segment were named eq-AR. The person assessing the slides was blinded to the treatment of the sample.

[3] = test system: human spermatozoa; assay: Induction of sperm motility (ABC motility) in semen samples in vitro; conditions: for sperm motility (ABC) in young normal men: 1 nM 1,25(OH)2D3, p=0.01; for sperm motility in infertile/subfertile men: 1 nM 1,25(OH)2D3, p=0.80
Protocol: The preparation was placed on the heating stage of a microscope at 37° C. and immediately examined at x400 magnification counting 200 spermatozoa. The sperm were classified as progressive motile (WHO class A+B), non-progressive motile (class C) or immotile (class D). The motility counting was repeated on a second aliquot of 10 μl well-mixed semen.
The participants produced a semen sample by masturbation. Self-reported information of duration of ejaculation abstinence was obtained. Trained technicians conducted semen analysis Semen volume was estimated by weighing. For sperm motility assessment, duplicates of 10 μl of well-mixed semen were placed on a glass slide, examined on a heating stage kept at 37° C., under a microscope at ×400 magnification, and spermatozoa were classified as progressive motile (WHO class A+B), non-progressive motile (class C) or immotile (class D). The average of the two motility assessments was used. For the assessment of the sperm concentration the samples were diluted in a solution of 0.6 mol/l NaHCO3 and 0.4% (v/v) formaldehyde in distilled water, and subsequently assessed using Bürker-Türk haemocytometer. Only spermatozoa with tails were counted. Finally, smears were prepared, Papanicolaou stained and spermatozoa morphology assessed according to strict criteria.
Their semen samples were assessed as described above. […] Motility assessment was conducted in 17 samples (in duplicates) under non-capacitating conditions (in their seminal plasma), and 3 samples were also analyzed in capacitating conditions. 7 consecutively included men were used to investigate a dose-response relationship between VD and sperm motility.

[4] = 1,25(OH)2D3 after pretreatment with nifedipine 10 μM
[5] = higher 1,25(OH)2D3 concentrations

With `C=C1/C(=C\C=C2/CCC[C@]3(C)[C@@H]([C@H](C)CCCC(C)(C)O)CC[C@@H]23)C[C@@H](O)C[C@@H]1O` [1,25(OH)2D3, 1,25-dihydroxyvitamin D3] the “effect of pre-treatment with 1,25(OH)2D3 on the calcium effect of progesterone” value [1] was “could not be abrogated”, the “maximum amplitude of the calcium increase, higher than baseline calcium level” value ([1]; 1 nM 1,25(OH)2D3) was 5-10 fold and the “calcium response in non-capacitating media” value ([1]; 1 nM 1,25(OH)2D3, versus capacitating media) was “lower amplitude”. The “amplitude relative to the amplitude elicited by 10 μM progesterone” value ([1]; 1,25(OH)2D3 (1 nM elsewhere in the source)) was 40% and 40-80%, the “effect on intracellular calcium” value ([1]; 1,25(OH)2D3, printed range 50 μM-10 μM, 100 μM-10 μM) was “induced a rapid increase in intracellular calcium” and the “increase in intracellular calcium from baseline” value ([1]; 1,25(OH)2D3 added to motile spermatozoa, calcium containing medium) was 5-10 fold. For the same molecule, the “length of repolarisation phase” value [1, 4] was 4 min, the “maximum amplitude of calcium increase, higher than baseline” value [1, 4] was 7 fold and the “threshold for the observed all-or-nothing calcium response” value ([1]; 1,25(OH)2D3 concentration) was 10 to 50 µM. For the same molecule, the “duration of plateau phase” value ([1]; <10 nM 1,25(OH)2D3) was “up to 50 sec”, the “start of the calcium increase in the neck region” value ([1]; after addition of 1,25(OH)2D3) was no more than 5 s and the “increase in [Ca2+]i in calcium free media with EGTA (words)” value ([1]; calcium free media, 5 μM EGTA) was “Neither, 1,25(OH)2D3 nor progesterone were able to induce an increase in intracellular calcium; also recorded: could not induce an increase in [Ca2+]i”. The “dependence of amplitude on concentration” value [1, 5] was “did not seem to increase markedly with higher concentration; also recorded: did not increase with higher 1,25(OH)2D3 concentrations”, the “duration of plateau phase” value [1, 5] was 50 to 300 s and the “calcium response in calcium free media without EGTA” value ([1]; potentially contaminated [Ca2+]<5 uM) was “marked response; also recorded: increased intracellular calcium rapidly”. The “median percentage of spermatozoa with an equatorial band (eq. AR)” value ([2]; 1,25(OH)2D3 10^-9M (control 4.7%), p=0.214) was 5.3%, the “median percentage of acrosome reacted spermatozoa” value ([2]; 1,25(OH)2D3 10^-9M, capacitating media (control 12%)) was 21% and the “average increase in acrosome reacted spermatozoa” value ([2]; 1,25(OH)2D3 10^-9M, capacitating media, p=0.024) was 6%. For the same molecule, the “acrosome reacted spermatozoa in non-capacitating conditions” value ([2]; NaCl, 6 men, VD treated (control 3.7%)) was 4.2%, the “sperm motility (ABC) in young normal men” value [3] was “increased significantly; also recorded: modest increase in sperm motility” and the “sperm motility (ABC) in young normal men” value ([3]; listed as calcitriol) was “significant increase in normal men”. The “sperm motility in infertile/subfertile men” value [3] was “did not increase; also recorded: no increase in sperm motility”, the “sperm motility in infertile/subfertile men” value ([3]; listed as activated VD) was “did not increase in sperm motility” and the “sperm motility in infertile/subfertile men” value ([3]; listed as calcitriol) was “unable to increase motility in infertile men”. For the same molecule, the “increase in median sperm motility (ABC)” value ([3]; 1,25(OH)2D3 10-14M to 10^-9M, dose-response, 7 men) was 2-7%, the “median decrease in sperm motility compared with control” value ([3]; 1,25(OH)2D3 10^-5M) was 15% and the “median increase in sperm motility (ABC)” value ([3]; 1,25(OH)2D3 10^-9M, p=0.006) was 7%. For the same molecule, the “sperm motility” value ([3]; 1,25(OH)2D3 concentrations above 10^-7M) was “decreased motility compared with control” and the “increase in mean sperm motility” value ([3]; 10^-9M 1,25(OH)2D3, 30 min, room temperature, 17 men, p=0.010) was 2.9%.

`C=C1/C(=C\C=C2/CCC[C@]3(C)[C@@H]([C@H](C)CCCC(C)(C)O)CC[C@@H]23)C[C@@H](O)C[C@H]1O` [1β, 25(OH)2D3] was tested, and the “effect of non-genomic VDR antagonist pretreatment on the calcium response to 1,25(OH)2D3” value ([1]; 1 nM calcitriol) was “completely blocked; also recorded: abrogated the response to 1,25(OH)2D3 completely” and the “effect of non-genomic VDR antagonist pretreatment on the calcium response to 1,25(OH)2D3” value ([1]; 1 nM calcitriol, listed as 1β,25(OH) 2D3) was “blocked completely”.

For `C=C1CC[C@H](O)C/C1=C/C=C1\CCC[C@]2(C)[C@@H]([C@H](C)CCCC(C)(C)O)CC[C@@H]12` [25-OH D3, 25-hydroxycholecalciferol], the “effect on intracellular calcium” value ([1]; 25-OH D3 up to 100 nM, normal media) was “no effect on intracellular calcium levels” and the “effect on intracellular calcium” value ([1]; 25-OH D3 up to 100 nM, normal media, listed as 25-0H D3) was “unable to elicit an increase in [Ca2+]i”.

`COc1ccc2c(c1)CC[C@@H]1[C@@H]2CC[C@]2(C)[C@@H](NCCCCCCN3C(=O)C=CC3=O)CC[C@@H]12` [U73122, 1-[6-[[17fi-3-methoxyestra-1,3,5(10)-trien-17-yl]amino]hexyl]-1H-pyrrole-2,5-dione] was tested, and the “effect on the calcium response to 1,25(OH)2D3” value ([1]; 2 μM U73122, no concentration) was “unable to induce a rapid increase in [Ca2+]i; also recorded: caused a delayed and diminished response to 1,25(OH)2D3”, the “effect on the rapid calcium increase elicited with 1 nM 1,25(OH)2D3” value ([1]; 5 μM U73122) was “delayed in these spermatozoa and the amplitude was smaller or absent” and the “spermatozoa that remained low and stable in intracellular calcium” value ([1]; 5 μM U73122, normal calcium containing media) was 10-20%. The “increase of baseline [Ca2+]i” value ([1]; 10 μM U73122) was “more than 5 fold”, the “spermatozoa that increased their baseline [Ca2+]i” value ([1]; 10 μM U73122) was greater than 80% and the “effect of PLC inhibition on the calcium effect of progesterone” value ([1]; U73122) was “unable to abrogate the effect of progesterone”.

`C=C1/C(=C\C=C2/CCC[C@]3(C)[C@@H]([C@H](C)/C=C/[C@@H](O)C4(C(=O)OCCCC)CC4)CC[C@@H]23)C[C@@H](O)C[C@@H]1O` [ZK159222] was tested, and the “effect of nuclear VDR antagonist on the calcium response to 1,25(OH)2D3” value ([1]; ZK159222 0.1-100 μM, 1 nM calcitriol) was “could not be abrogated; also recorded: unable to abrogate or suppress the effect of 1,25(OH)2D3 treatment”.

With `C[C@H](CCC(=O)O)C[C@H](C)C[C@H](C)C(=O)/C=C(\O)[C@H](C)C[C@H](C)C/C=C/[C@@H](C)[C@@H](O)[C@@H](C)[C@@H](O)C[C@@H]1CC[C@@](C)([C@H]2CC[C@@](C)([C@@H](C)O)O2)O1` [ionomycin] the “increase in [Ca2+]i in calcium free media with EGTA (words)” value ([1]; ionomycin 500 nM) was “low but significant increase in the intracellular calcium; also recorded: elicited only a small Ca2+ rise”, the “amplitude of the response from baseline” value ([1]; ionomycin 500 nM, calcium free media with EGTA) was less than 3 fold and the “increase in [Ca2+]i in calcium free media with EGTA (words)” value ([1]; ionomycin 500 nM, listed as Ionomycin) was “low but reproducible increase in [Ca2+]i”.

For `CC(=O)[C@H]1CC[C@H]2[C@@H]3CCC4=CC(=O)CC[C@]4(C)[C@H]3CC[C@]12C` [progesterone], the “increase in [Ca2+]i in calcium free media with EGTA (words)” value ([1]; calcium free media, 5 μM EGTA) was “Neither, 1,25(OH)2D3 nor progesterone were able to induce an increase in intracellular calcium; also recorded: could not induce an increase in [Ca2+]i”.

In the case of `C/C=C(/C)C(=O)O[C@H]1C(C)=C2[C@H]([C@@H]1OC(=O)CCCCCCC)[C@@](C)(OC(C)=O)C[C@H](OC(=O)CCC)[C@@]1(O)[C@H]2OC(=O)[C@@]1(C)O` [thapsigargin], the “effect on baseline calcium concentration” value ([1]; thapsigargin 4 μM) is reported as “caused a slow increase in baseline calcium concentration”, the “calcium response to 1,25(OH)2D3 after thapsigargin” value ([1]; thapsigargin 4 μM, 1,25(OH)2D3 added 9 min later) is reported as “unable to elicit a substantial calcium response; also recorded: diminished the effect of 1,25(OH)2D3” and the “stable plateau, higher than baseline calcium concentration” value ([1]; thapsigargin 4 μM, nine minutes after exposure) is reported as 3 fold. For the same molecule, the “calcium response to 1,25(OH)2D3 after thapsigargin” value ([1]; thapsigargin <1 μM) was “unable to abrogate the effect of 1,25(OH)2D3”.
